Assay results as given in patent US20260327243A1, “SPIRO-HETEROCYCLIC INHIBITORS OF KRAS G12C MUTANT PROTEINS AND USES THEREOF” (AMGEN INC., priority 2023, published 2026).

Columns and labels:
KRAS^G12C = KRAS^G12C (Homo sapiens, UniProt P01116, C118A/G12C); test: Coupled Nucleotide Exchange Assay; assay type: biochemical; details: GDP-bound KRAS (aa 1-169) G12C/C118A; 2 h compound pre-incubation; SOS-mediated exchange, 30 min; cRAF binding (AlphaLISA)
Procedure: The KRAS^G12C coupled nucleotide exchange assay allows for the screening and profiling of KRAS^G12C antagonists/inhibitors by monitoring the binding of an effector protein (e.g., a Ras binding domain of Raf1, RBD-cRaf) to KRAS^G12C. Purified GDP-bound KRAS protein (aa 1-169), containing both G12C and C118A amino acid substitutions and an N-terminal His-tag, was pre-incubated in assay buffer (25 mM HEPES pH 7.4, 10 mM MgCl2, 0.01% Triton X-100, either with or without 0.1% BSA) with serially diluted compound for 2 h. For all subsequent steps, BSA was omitted and DTT was added to the reaction buffer at a final concentration of 1 mM. Following compound pre-incubation, purified SOS protein (aa 564-1049) and GTP (Roche 10106399001) were added to the assay wells and incubated for an additional 30 min. To determine the extent of inhibition of SOS-mediated nucleotide exchange, purified GST-tagged cRAF (aa 1-149), nickel chelate AlphaLISA acceptor beads (PerkinElmer AL108R), and AlphaScreen glutathione donor beads (PerkinElmer 6765302) were added to the assay wells and incubated for 5-30 min. The assay plates were then read on a plate reader measuring luminescence signal. Signal intensity of compound-containing wells were normalized to DMSO control, and data were analyzed using a 4-parameter logistic model to calculate IC50 values.

MIA PaCa-2 cells = test: Cell Viability Assay, MIA PaCa-2; assay type: cell-based; details: human pancreatic carcinoma, CellTiter-Glo
Procedure: (§1) MIA PaCa-2 (human pancreatic carcinoma; ATCC CRL-1420) or A549 (human lung carcinoma; ATCC CCL-185) cells were cultured in RPMI 1640 medium containing 10% fetal bovine serum and 1×penicillin/streptomycin/L-glutamine. Cells were seeded in 384-well plates at a density of 1.67E+04 cells/mL and incubated at 37° C., 5% CO2, overnight. Serially-diluted compound or DMSO was added to the cells, and plates were incubated at 37° C., 5% CO2 for 72 h. Cell viability was measured using a CellTiter-Glo® Luminescent Cell Viability Assay kit (Promega) according to the manufacturer's protocol. The luminescence signal of treated samples was normalized to DMSO control, and data were analyzed using a 4-parameter logistic model to calculate IC50 values.
(§2) The following data (Table 3) categorizes the IC50 of each compound for inhibiting enzymatic activity of KRAS^G12C in the indicated cells.

A549 cells = test: Cell Viability Assay, A549; assay type: cell-based; details: human lung carcinoma, 72 h, CellTiter-Glo
Procedure: as §1, §2

Chain of KRAS^G12C (P01116 1-169 isoform P01116-2 G12C/C118A): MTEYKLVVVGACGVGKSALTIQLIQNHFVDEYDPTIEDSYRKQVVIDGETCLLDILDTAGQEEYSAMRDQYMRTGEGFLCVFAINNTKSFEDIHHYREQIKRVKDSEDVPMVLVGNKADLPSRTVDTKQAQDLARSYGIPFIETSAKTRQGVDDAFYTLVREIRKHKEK

Structure (SMILES) | IC50 (KRAS^G12C) [nM] | IC50 (MIA PaCa-2 cells; Homo sapiens, MIA PaCa-2, 72 h) [nM] | IC50 (A549 cells; A549) [nM] | IC50 (MIA PaCa-2 cells; 72 h) [nM] | IC50 (A549 cells) [nM]
C=CC(=O)N1CCN(C2CN(c3cc(N4CCC5(CC4)OCCC5F)nc(C(F)(F)F)c3C#N)C2)CC1 (stereo not drawn) [Compound 3-058, 4-(3-(4-Acryloylpiperazin-1-yl)azetidin-1-yl)-6-(4-fluoro-1-oxa-8-azaspiro[4.5]decan-8-yl)-2-(trifluoromethyl)nicotinonitrile] | 920 | > 5000 | > 5000 | – | –
C=CC(=O)N1CCN([C@@H]2CN(c3cc(N4CCC5(CC4)OC[C@H](COC)n4ncc(C)c45)nc(C(F)(F)F)n3)[C@@H]2C)CC1 [Compound 3-098] | 131 | 224 | > 5000 | – | –
C=CC(=O)N1CCN(C2CN(c3cc(N4CCC5(CC4)COc4ccccc45)nc(C(F)(F)F)c3C#N)C2)CC1 [Compound 3-015] | 669 | 2760 | > 5000 | – | –
C=CC(=O)N1CCN(C2CN(c3cc(N4CCC5(CC4)c4ccccc4C(=O)N5C)nc(C(F)(F)F)c3C#N)C2)CC1 [Compound 3-004, 4-(3-(4-Acryloylpiperazin-1-yl)azetidin-1-yl)-6-(2-methyl-3-oxospiro[isoindoline-1,4′-piperidin]-1′-yl)-2-(trifluoromethyl)nicotinonitrile] | 154 | 527 | > 5000 | – | –
C=CC(=O)N1CCN([C@@H]2CN(c3cc(N4CCC5(CC4)OCCC=C5C)nc(C(F)(F)F)n3)[C@@H]2C)CC1 [Compound 3-008, 1-(4-((2R.3R)-2-methyl-1-(6-(5-methyl-1-oxa-9-azaspiro[5.5]undec-4-en-9-yl)-2-(trifluorometh-yl)pyrimidin-4-yl)azetidin-3-yl)-piperazin-1-yl)prop-2-en-1-one] | 275 | 625 | – | – | –
C=CC(=O)N1CCN([C@@H]2CN(c3cc(N4CCC5(CC4)OCC(CO)n4ncc(C)c45)nc(C(F)(F)F)n3)[C@@H]2C)CC1 (stereo partly drawn) [Compound 3-081, 1-(4-((2R,3R)-1-(6-(7′-(hydroxymethyl)-3′-methyl-6′,7′-dihydrospiro[piperidine-4,4′-pyrazolo[5,1-c][1.4]oxazin]-1-yl)-2-(trifluoromethyl)pyrimidin-4-yl)-2-methylazetidin-3-yl)piperazin-1-yl)prop-2-en-1-one] | 63 | 131 | > 5000 | – | –
C=CC(=O)N1CCN(C2CN(c3cc(N4CCC5(CC4)CC5)nc(C(F)(F)F)c3C#N)C2)CC1 [Compound 3-038, 4-(3-(4-acryloylpiperazin-1-yl)azetidin-1-yl)-6-(6-azaspiro[2.5]octan-6-yl)-2-(trifluoromethyl)nicotinonitrile] | 5700 | – | – | – | –
C=CC(=O)N1CCN(C2CN(c3cc(N4CCC5(CCc6ccccc65)CC4)nc(C(F)(F)F)n3)C2)CC1 [Compound 3-063, 1-(4-(1-(6-(2,3-Dihydrospiro[indene-1,4′-piperidin]-1′-yl)-2-(trifluoromethyl)pyrimidin-4-yl)azetidin-3-yl)piperazin-1-yl) prop-2-en-1-one] | 8240 | – | – | – | –
C=CC(=O)N1CCN(C2CN(c3cc(N4CCC5(CC4)OC(C)C=C5Cl)nc(C(F)(F)F)c3C#N)C2)CC1 (stereo not drawn) [Compound 3-065, 4-(3-(4-Acryloylpiperazin-1-yl)azetidin-1-yl)-6-(4-chloro-2-methyl-1-oxa-8-azaspiro[4.5]dec-3-en-8-yl)-2-(trifluoromethyl)nicotinonitrile] | 752 | – | – | – | –
C=CC(=O)N1CCN(C2CN(c3cc(N4CCC5(CC4)CC(C#N)CO5)nc(C(F)(F)F)c3C#N)C2)CC1 (stereo not drawn) [Compound 3-030, 8-(4-(3-(4-acryloylpiperazin-1-yl)azetidin-1-yl)-5-cyano-6-(trifluoromethyl)pyridin-2-yl)-1-oxa-8-azaspiro[4.5]decane-3-carbonitrile] | 9590 | – | – | – | –
C=CC(=O)N1CCN([C@@H]2CN(c3cc(N4CCC5(CC4)OCCC=C5C)nc(C(F)F)n3)[C@@H]2C)CC1 [Compound 3-009, 1-(4-((2R,3R)-1-(2-(difluorometh-yl)-6-(5-methyl-1-oxa-9-azaspiro [5.5]undec-4-en-9-yl)-pyrimidin-4-yl)-2-methylazetidin-3-yl)piper-azin-1-yl)prop-2-en-1-one] | 884 | – | – | – | –
C=CC(=O)N1CCN(C2CN(c3cc(N4C5CCC4CC4(CCCO4)C5)nc(C(F)F)c3C)C2)CC1 (stereo not drawn) [Compound 3-071, 1-(4-(1-(2-(difluoromethyl)-6-(dihydro-3′H-8-azaspiro[bicyclo[3.2.1]octane-3,2′-furan]-8-yl)-3-methylpyridin-4-yl)azetidin-3-yl)piperazin-1-yl)prop-2-en-1-one] | 2990 | – | – | – | –

Other lines, results leading:

IC50 (KRAS^G12C) [nM] | IC50 (MIA PaCa-2 cells; Homo sapiens, MIA PaCa-2, 72 h) [nM] | IC50 (A549 cells; A549) [nM] | IC50 (MIA PaCa-2 cells; 72 h) [nM] | IC50 (A549 cells) [nM] | Structure (SMILES)
161 | 254 | 4550 | – | – | C=CC(=O)N1CCN([C@@H]2CN(c3cc(N4CCC5(CC4)OCC=C5C)nc(C(F)(F)F)c3C#N)[C@@H]2C)CC1 [Compound 3-052, 4-((2R,3R)-3-(4-Acryloylpiperazin-1-yl)-2-methylazetidin-1-yl)-6-(4-methyl-1-oxa-8-azaspiro[4.5]dec-3-en-8-yl)-2-(trifluoromethyl)nicotinonitrile]
40 | 155 | > 5000 | – | – | C=CC(=O)N1CCN([C@@H]2CN(c3cc(N4CCC5(CC4)OC[C@@H](C)n4ncc(C)c45)nc(C(F)(F)F)n3)[C@@H]2C)CC1 [Compound 3-100, 1-(4-((2R,3R)-1-(6-((7′R)-3′,7′-dimethyl-6′,7′-dihydro-1H-spiro[piperidine-4,4′-pyrazolo[5,1-c][1,4]oxazin]-1-yl)-2-(trifluoromethyl)-4-pyrimidinyl)-2-methyl-3-azetidinyl)-1-piperazinyl)-2-propen-1-one]
253 | 1140 | > 5000 | – | – | C=CC(=O)N1CCN(C2CN(c3cc(N4CCC5(CC4)OCc4ncsc45)nc(C(F)(F)F)c3C#N)C2)CC1 [Compound 3-046, 4-(3-(4-Acryloylpiperazin-1-yl)azetidin-1-yl)-6-(4H-spiro[furo[3,4-d]thiazole-6,4′-piperidin]-1′-yl)-2-(trifluoromethyl)nicotinonitrile]
315 | 625 | > 5000 | – | – | C=CC(=O)N1CCN([C@@H]2CN(c3cc(N4CCC5(CC4)OCCc4ncsc45)nc(C(F)(F)F)n3)[C@@H]2C)CC1 [Compound 3-002, 1-(4-((2R,3R)-1-(6-(6′,7′-Dihydrospiro[piperidine-4,4′-pyrano[4,3-d]thiazol]-1-yl)-2-(trifluoromethyl)pyrimidin-4-yl)-2-methylazetidin-3-yl)piperazin-1-yl)prop-2-en-1-one]
704 | 2800 | > 5000 | – | – | C=CC(=O)N1CCN(C2CN(c3cc(N4CCC5(CCC(=O)N5C)CC4)nc(C(F)(F)F)c3C#N)C2)CC1 [Compound 3-075, 4-(3-(4-Acryloylpiperazin-1-yl)azetidin-1-yl)-6-(1-methyl-2-oxo-1,8-diazaspiro[4.5]decan-8-yl)-2-(trifluoromethyl)nicotinonitrile]
– | – | – | 180 | > 5000 | C=CC(=O)N1CCN([C@@H]2CN(c3cc(N4CCC5(CC4)OCCc4nccc(C)c45)nc(C(F)(F)F)n3)[C@@H]2C)CC1 [Compound 3-085, 1-(4-((2R,3R)-2-methyl-1-(6-(4′-methyl-7′,8′-dihydrospiro[piperidine-4,5′-pyrano[4,3-b]pyridin]-1-yl)-2-(trifluoromethyl)pyrimidin-4-yl)azetidin-3-yl)piperazin-1-yl)prop-2-en-1-one]
964 | – | – | – | – | C=CC(=O)N1CCN([C@@H]2CN(c3cc(N4CCC5(C=CCO5)CC4)nc(C(F)(F)F)n3)[C@@H]2C)CC1 [Compound 3-011, 1-(4-((2R,3R)-1-(6-(1-oxa-8-aza-spiro[4.5]dec-3-en-8-yl)-2-(tri-fluoromethyl)pyrimidin-4-yl)-2-methylazetidin-3-yl)piperazin-1-yl)prop-2-en-1-one]
2910 | – | – | – | – | C=CC(=O)N1CCN([C@@H]2CN(c3cc(N4CCC5(CC4)COc4nccc(C)c45)nc(C(F)F)n3)[C@@H]2C)CC1 [Compound 3-086, 1-(4-((2R,3R)-1-(2-(difluoromethyl)-6-(4-methyl-2H-spiro[furo[2.3-b]pyridine-3,4′-piperidin]-1′-yl)pyrimidin-4-yl)-2-methylazetidin-3-yl)piperazin-1-yl)prop-2-en-1-one]
